# Assay results published in patent publication US20120189564A1, “COMPOSITIONS OF VITAMIN C DERIVATIVE AND PORTULACA EXTRACT” (PRESPERSE CORPORATION, priority 2011, published 2012).
# System: B16-F10 melanoma cells
# Assay: Melanin formation inhibition (without UV stress) in B16-F10 melanoma cells
# Assay type: cell-based
# Description: Experiments were conducted to evaluate suppression of melanin synthesis using B16 melanoma cells by Portulaca Extract, ASG and Portulaca/ASG blend with and without UV stress at different levels. These experiments were performed to quantify skin whitening effects of the blend versus the individual components of the blend. Test (I)—Melanin Formation Inhibition (without UV Stress) Two sets of B16-F10 melanoma cells (ATCC 6475) were seeded at 6 well multi-plates with 1×10^5 density and cultured in Culbecco's Modified Eagle's Medium (DMEM) supplemented 10% fetal bovine serum (FBS) at 37° C. for 24 hours. The medium was exchanged with fresh DMEM media containing 10% FBS and test samples were added and cultured for 72 hours at 37° C. One set of cultured cells was washed with 2 ml of PBS (phosphate buffered saline) and cells were dissolved by 250 ul of 1N NaOH and melanin content was measured by UV absorbance at 450 nm. The other set of cells was incubated after adding 200 ul of MTT (2.5 mg/ml) at 37° C. for 4 hours. Culture medium was discarded and cells were dissolved for 10 minutes at room temperature by adding 2 ml of DMSO. After the cells were completely dissolved, UV absorbance was measured at 570 nm. […] [table]
structure (smiles),measurement,setting,value
"O=C1O[C@H]([C@H](O)CO)C(O)=C1O[C@H]1O[C@H](CO)[C@@H](O)[C@H](O)[C@H]1O [ASG, 2-0-α-D-glucopyranosyl-L-ascorbic acid]",melanin formation inhibition,"1.2% of ASG, 72 hours, FIGS. 1 and 2",about 20%
same,melanin formation inhibition (result in words),"B16-F10 cells, concentration series of Table 2",melanin formation inhibition in a dose dependent manner
